Earlier results on one compound are cited in US20170022153A1, “FUMARATE COMPOUNDS, PHARMACEUTICAL COMPOSITIONS THEREOF, AND METHODS OF USE” (priority 2015, published 2017).

Each structure is given as a SMILES string.

Turning to `COC(=O)/C=C/C(=O)OC` [DMF, dimethylfumarate], the aqueous solubility result is on record as “poor”.
